According to patent US9096607B2, “Tumor necrosis factor inhibitors” (THE TRUSTEES OF THE UNIVERSITY OF PENNSYLVANIA, priority 2005, dated 2015):

Test system: L929 cells
Assay: Inhibition of TNF-α mediated cytolysis of L929 cells (Alamar Blue)
Assay type: cell-based, murine
Conditions: TNF-α 100 pg/mL, actinomycin D 1 μM; for % Inhibition at: 25 μM: 25 μM compound; for % Inhibition at: 50 μM: 50 μM compound; for % Inhibition at: 100μM: 100 μM compound
Source text: L929 cultured murine fibroblasts cells were obtained from American Type Culture Collection (Manassas, Va.). Tissue culture reagents were from Invitrogen or Sigma-Aldrich. TNF-α and Actinomycin D were from Sigma-Aldrich. Alamar Blue reagents (Cell Titer Blue™) were from Promega. The test compounds I-1 through I-16, II-1 through II-8, and III-1 through III-3 were obtained commercially or can be prepared as described above. The test compounds were individually dissolved in dimethylsulfoxide (DMSO). The test compounds were maintained at 4° C. when not in use. Other reagents were high-purity (ACS-grade, HPLC-grade, MilliQ water, or similar).
Stock L929 cells were grown on tissue culture plastic in complete DMEM (Dulbecco's Modified Eagles Medium) supplemented with 10% FBS (Fetal Bovine Serum), NEAA (non-essential amino acids), and glutamine. L929 cells were plated using the same medium on 96-well tissue culture plates at high density (i.e., ˜4×10^4 cells/well, or similar) before use.
Approximately 20 h after plating, the L929 cells on 96-well plates were re-fed with fresh medium containing one of the test compounds in a concentration selected from 100 μM, 50 μM, 25 μM as a “pre-treatment.” Approximately 30-60 min later, samples were treated with an additional amount of test compound (in the same amount and at the same concentration as the pre-treatment) prepared in medium containing TNF-α (200 pg/mL), and actinomycin D (2 μM). The final concentration of TNF-α in assays was 100 pg/mL. The final concentration of actinomycin D in assays was 1 μM. The plates were incubated for an additional 22-23 h, the Alamar Blue assay reagents were added and metabolic cell viability was determined from reduction of a fluorogenic Alamar Blue derivative.
The temperature was maintained at 37° C. with 5% CO2 and humidified. The metabolic viability was measured 1-2 h after addition of assay reagents/Alamar Blue derivative using TECAN SaFire fluorescence plate reader (Tecan Group Ltd., Maennedorf, Switzerland).
Inhibition of TNF-α induced cytolysis by a test compound (X) at a given concentration (y) was calculated as follows: […]

Row | Compound | % Inhibition at: 25 μM [%] | % Inhibition at: 50 μM [%] | % Inhibition at: 100μM [%]
1 | O=C(O)c1ccccc1C1c2ccc(Cl)cc2Oc2cc(Cl)ccc21 [II-3, 2-(3,6-Dichloro-9H-xanthen-9-yl)-benzoic acid] | 36.2 | 45.6 | 52.4
2 | COc1ccc(C(C(=O)[O-])(c2ccc(OC)cc2)c2ccc(OC)cc2)cc1.[Na+] [Compound I-5, Sodium 1,1,1-tris-(4-methoxyphenyl)acetate] | 1.7 | 5.0 | 12.1
3 | O=C([O-])c1ccccc1C1c2ccc(O)cc2Oc2cc(O)ccc21.[K+] [II-8, Potassium 2-(3,6-dihydroxy-9H-xanthen-9-yl)-benzoate] | 23.6 | 24.7 | 25.6
4 | CC(c1ccccc1)(c1ccc(OC(=O)CCl)cc1)c1ccc(OC(=O)CCl)cc1 [Compound I-15, 1,1-Bis-(4-chloroacetoxyphenyl)-1-phenylethane] | 29.7 | 73.8 | −19.8
5 | CC(c1ccc(OCC(=O)[O-])cc1)(c1ccc(OCC(=O)[O-])cc1)c1ccc(OCC(=O)[O-])cc1.[Na+].[Na+].[Na+] [Compound I-3, 1,1,1-Tris-(4-carboxymethoxyphenyl)ethane, trisodium salt] | 23.0 | 17.7 | 12.4
6 | COc1ccc([C+](c2ccc(OC)cc2)c2ccc(OC)cc2)cc1 [Compound I-7, 4,4′,4″-Trimethoxytrityl tetrafluoroborate] | 15.1 | 30.2 | 25.9
7 | COC(=O)COc1ccc(C(C)(c2ccc(OCC(=O)OC)cc2)c2ccc(OCC(=O)OC)cc2)cc1 [Compound I-4, 1,1,1-Tris-(4-methoxycarbonylmethoxyphenyl)ethane] | 18.4 | 27.9 | −11.6
8 | O=C(O)c1ccccc1C1c2ccc(O)cc2Oc2cc(O)ccc21 [II-5, 2-Hydroxy-1,1-bis-hydroxymethyl-ethyl-ammonium; 2-(3,6-dihydroxy-9H-xanthen-9-yl)-benzoate] | 25.1 | 16.3 | 21.5
9 | CN(C)c1ccc(C(O)(c2ccc(N(C)C)cc2)c2ccc(N(C)C)cc2)cc1 [Compound I-1, 1,1,1-Tris-(4-dimethylaminophenyl)methanol] | 44.0 | 63.3 | 40.9
10 | O=C([O-])c1ccccc1C(c1ccc(O)cc1)c1ccc(O)cc1.[K+] [II-7, Potassium 2-[bis-(4-hydroxyphenyl)-methyl]-benzoate] | 22.5 | 19.1 | 13.2
11 | COc1ccc(C(O)(c2ccc(OC)cc2)c2ccc(OC)cc2)cc1 [Compound I-6, 1,1,1-Tris-(4-methoxyphenyl)methanol] | 12.0 | 25.9 | 32.5
12 | O=[N+]([O-])c1cccc(NN=C(c2ccc(Cl)cc2)c2ccc(Cl)cc2)c1 [III-3, N-(4,4′-Dichlorobenzhydrylidene)-N-(3-nitrophenyl)hydrazine] | 6.6 | 3.4 | 8.1
13 | CC(=O)Oc1ccc(C2(c3ccc(OC(C)=O)cc3)C(=O)Nc3ccccc32)cc1 [Compound I-16, 3,3-Bis[4-(acetyloxy)phenyl]-1,3-dihydro-2H-indol-2-one] | 4.3 | 11.5 | 17.1
14 | CC(=O)Oc1ccc(C(=NNc2cccc([N+](=O)[O-])c2)c2ccc(OC(C)=O)cc2)cc1 [III-2, 4,4′-Diacetoxybenzophenone-3-nitrophenylhydrazone] | 26.9 | 42.0 | −19.8
15 | CC(c1ccc(OC(=O)CCl)cc1)(c1ccc(OC(=O)CCl)cc1)c1ccc(OC(=O)CCl)cc1 [Compound I-13, 1,1,1-Tris-(4-chloroacetoxyphenyl)ethane] | 35.4 | 72.2 | 38.9
16 | CN(C)c1ccc(C(O)(c2ccccc2)c2ccc(N(C)C)cc2)cc1 [Compound I-17, 1,1-Bis(4-dimethylaminophenyl)-1-phenyl-methanol] | −16.0 | −17.0 | −17.9
17 | Cc1cc(C(C)(c2ccc(O)cc2)c2cc(C)c(N)c(C)c2)cc(C)c1N [Compound I-18, 1,1-Bis(4-amino-3,5-dimethylphenyl)-1-(4-hydroxyphenyl)-ethane] | 22.6 | 36.6 | 53.8
18 | CC(=O)Oc1ccc2c(c1)Oc1cc(OC(C)=O)ccc1C21OC(=O)c2ccccc21 [II-2, 3′,6′-Fluorescein diacetate] | 25.4 | 23.5 | 26.0
19 | O=C1OC2(c3ccc(Cl)cc3Oc3cc(Cl)ccc32)c2ccccc21 [II-1, 3′,6′-Dichlorofluorescein] | 20.7 | 8.8 | 7.6
20 | O=C(O)c1ccccc1C1c2ccc(O)cc2Oc2cc(O)ccc21 [II-4, 2-(3,6-Dihydroxy-9H-xanthen-9-yl)-benzoic acid] | 33.3 | 23.6 | 23.2
21 | CC(=O)Oc1ccc(C(C)(c2ccccc2)c2ccc(OC(C)=O)cc2)cc1 [Compound I-10, 1,1-Bis-(4-acetoxyphenyl)-1-phenyl-ethane] | 20.7 | 46.6 | 71.9
22 | COC(=O)COc1ccc(C(C)(c2ccc(OCC(=O)OC)cc2)c2ccc(OC(C)=O)cc2)cc1 [Compound I-14, 1-(4-Acetoxy-phenyl)-1,1-bis-(4-methoxycarbonylmethoxyphenyl)ethane] | 13.4 | 30.2 | 45.3
23 | CC(c1ccc(O)cc1)(c1ccc(OCC(=O)O)cc1)c1ccc(OCC(=O)O)cc1.[Na+].[Na+].[Na+] [Compound I-12, 1,1-Bis-(4-carboxymethoxy-phenyl)-1-(4-hydroxyphenyl)ethane, trisodium salt] | 14.5 | 16.9 | 14.2
24 | O=[N+]([O-])c1cccc(NN=C(c2ccc(O)cc2)c2ccc(O)cc2)c1 [III-1, N-(4,4′-Dihydroxybenzhydrylidene)-N′-(3-nitrophenyl)hydrazine] | 33.2 | 42.5 | −20.3
25 | CC(=O)Oc1cc2c(cc1Cl)C1(OC(=O)c3ccccc31)c1cc(Cl)c(OC(C)=O)cc1O2 [II-9, 2′,7′-Dichlorofluorescein diacetate] | 6.3 | 10.5 | 22.0
26 | COc1ccc(C(C(=O)O)(c2ccc(OC)cc2)c2ccc(OC)cc2)cc1 [Compound I-8, 1,1,1-Tris-(4-methoxyphenyl)acetic acid] | 2.7 | 6.9 | 18.4
27 | NC(=O)c1ccccc1C1c2ccc(Cl)cc2Oc2cc(Cl)ccc21 [II-6, 2-(3,6-Dichloro-9H-xanthen-9-yl)-benzamide] | 43.3 | −6.1 | −21.7
28 | COC(=O)COc1ccc(C(C)(c2ccc(O)cc2)c2ccc(O)cc2)cc1 [Compound I-11, 1,1-Bis-(4-hydroxyphenyl)-1-(4-methoxycarbonylmethoxyphenyl)ethane] | 13.9 | 36.7 | 14.8
